Reference: patent US6403531B1, “Herbicidal synergistic composition and method of weed control” (Syngenta Crop Protection, inc., priority 1997, dated 2002)

Assays:
Type in all cases: in vivo
Solanum = test: Post-emergence herbicidal action
From the text: (§1) A synergistic effect exists whenever the action of the active ingredient combination I and II, III, IV, V, VI, VII, VIII, IX or X is greater than the sum of the actions of the active ingredients applied individually. The herbicidal action to be expected, We, for a given combination of two herbicides can be calculated as follows (see COLBY, S. R. “Calculating synergistic and antagonistic response of herbicide combinations”. Weeds 15, pages 20-22; 1967):
(§2) We=expected herbicidal action (% herbicidal action in comparison with untreated control) after treatment with the compounds of formula I and II, III, IV, V, VI, VII, VIII, IX or X at a rate of application of p+q kg of active ingredient per hectare.
(§3) The test plants are raised in plastics pots under greenhouse conditions as far as the 2- to 3-leaf stage. A standard soil is used as the cultivation substrate. At the 2- to 3-leaf stage, the herbicides are applied individually and as mixtures to the test plants. The test compounds are applied in the form of an aqueous suspension in 500 l of water/ha. The rates of application depend on the optimum concentrations determined under field conditions and greenhouse conditions. Evaluation of the tests is made after 11 and 22 days (DAA=day after application) in % action. 100% denotes that the plants have died, 0% denotes no phytotoxic action.

Cyperus = test: Herbicidal action
Sorghum hal. = test: Herbicidal action; details: titled pre-emergence (under Example B2)
Xanthium = test: Pre-emergence herbicidal action
From the text: as §1, §2
(§4) Monocotyledonous and dicotyledonous weeds and cultivated plants are sown in standard soil in plastics pots. Immediately after sowing, the test compounds are applied as an aqueous suspension (500 l of water/ha). The rates of application depend on the optimum concentrations determined under field conditions and greenhouse conditions. Evaluation of the tests is made after 15 and 27 days (DAA=day after application) in % action. 100% denotes that the plants have died, 0% denotes no phytotoxic action.

Abutilon [1] = test: Pre-emergence herbicidal action
From the text: as §1, §2, §4

Sesbania [2] = test: Pre-emergence herbicidal action
From the text: as §1, §2, §4

Solanum nigrum = test: Herbicidal action; details: post-emergence
Cassia sp. = test: Post-emergence herbicidal action
From the text: as §1, §2, §3

Digitaria = test: Post-emergence herbicidal action
From the text: as §1, §2, §3

Abutilon [3] = test: Post-emergence herbicidal action
From the text: as §1, §2, §3

Sesbania [4] = test: Post-emergence herbicidal action
From the text: as §1, §2, §3

Sorghum = test: Post-emergence herbicidal action
From the text: as §1, §2, §3

cotton = test: Pre-emergence herbicidal action (cultivated plant)
From the text: as §1, §2, §4

N#Cc1cc(Br)c(O)c(Br)c1 [bromoxynil, bromoxinil]
herbicidal action on Solanum (Solanum; DAA 11, 500 g/ha): 35%
herbicidal action on Solanum (Solanum; DAA 11, 1000 g/ha): 40%

COc1cc(OC)nc(NC(=O)NOS(=O)c2ncccc2OCC(F)(F)F)n1.[Na+] (centres unmarked) [compound of formula I]
herbicidal action on Cyperus (Cyperus; post-emergence, DAA 22, 1.88 g/ha): 70%
herbicidal action on Cyperus (Cyperus; titled pre-emergence (under Example B2), DAA 11, 3.75 g/ha): 50%
herbicidal action on Sorghum hal. (Sorghum hal.; DAA 22, 1.88 g/ha): 75%
herbicidal action on Xanthium (Xanthium; DAA 15, 3.75 g/ha): 85%
herbicidal action on Xanthium (Xanthium; DAA 15, 7.5 g/ha): 90%
herbicidal action on Xanthium (Xanthium; DAA 27, 3.75 g/ha): 96%
herbicidal action on Abutilon (Abutilon [1]; DAA 27, 3.75 g/ha): 50%
herbicidal action on Sesbania (Sesbania [2]; DAA 15, 3.75 g/ha): 35%
herbicidal action on Sesbania (Sesbania [2]; DAA 27, 3.75 g/ha): 25%
herbicidal action on Solanum nigrum (Solanum nigrum; DAA 22, 1.88 g/ha): 0%
herbicidal action on Solanum nigrum (Solanum nigrum; DAA 22, 3.75 g/ha): 0%
herbicidal action on Solanum nigrum (Solanum nigrum; DAA 22, 7.5 g/ha): 15%
herbicidal action on Cassia sp. (Cassia sp.; DAA 11, 1.88 g/ha): 70%
herbicidal action on Digitaria (Digitaria; DAA 22, 1.88 g/ha): 15%
herbicidal action on Solanum (Solanum; DAA 11, 7.5 g/ha): 20%
herbicidal action on Abutilon (Abutilon [3]; DAA 22, 1.88 g/ha): 55%
herbicidal action on Sesbania (Sesbania [4]; DAA 11, 1.88 g/ha): 70%
herbicidal action on Sorghum (Sorghum; DAA 22, 1.88 g/ha): 75%
herbicidal action on cotton (damage) (cotton; DAA 27, 3.75 g/ha): 10%

CC1(C)CON(Cc2ccccc2Cl)C1=O [clomazone]
herbicidal action on Xanthium (Xanthium; DAA 15, 125 g/ha): 10%
herbicidal action on Xanthium (Xanthium; DAA 15, 250 g/ha): 25%
herbicidal action on Xanthium (Xanthium; DAA 15, 500 g/ha): 60%

CSc1nc(NC(C)C)nc(NC(C)C)n1 [prometryn]
herbicidal action on Xanthium (Xanthium; DAA 15, 250 g/ha): 0%
herbicidal action on Sesbania (Sesbania [2]; DAA 15, 250 g/ha): 10%
herbicidal action on Solanum nigrum (Solanum nigrum; DAA 22, 250 g/ha): 0%
herbicidal action on Solanum nigrum (Solanum nigrum; DAA 22, 500 g/ha): 0%
herbicidal action on Solanum nigrum (Solanum nigrum; DAA 22, 1000 g/ha): 20%

CP(=O)(O)CCC(N)C(=O)O (centres unmarked) [glufosinate]
herbicidal action on Cyperus (Cyperus; post-emergence, DAA 22, 250 g/ha): 35%
herbicidal action on Digitaria (Digitaria; DAA 22, 250 g/ha): 75%
herbicidal action on Abutilon (Abutilon [3]; DAA 22, 250 g/ha): 55%
herbicidal action on Sorghum (Sorghum; DAA 22, 250 g/ha): 85%

COc1cc(OC)nc(Sc2cccc(Cl)c2C(=O)[O-])n1.[Na+] [pyrithiobac, pyrithiobac-sodium]
herbicidal action on Cassia sp. (Cassia sp.; DAA 11, 25 g/ha): 50%
herbicidal action on Cassia sp. (Cassia sp.; DAA 11, 50 g/ha): 80%
herbicidal action on Cassia sp. (Cassia sp.; DAA 11, 100 g/ha): 70%

CCc1cccc(C)c1N(C(=O)CCl)[C@@H](C)COC [α-metolachlor]
herbicidal action on Cassia sp. (Cassia sp.; DAA 11, 250 g/ha): 0%
herbicidal action on Cassia sp. (Cassia sp.; DAA 11, 500 g/ha): 0%
herbicidal action on Cassia sp. (Cassia sp.; DAA 11, 1000 g/ha): 0%
herbicidal action on Sesbania (Sesbania [4]; DAA 11, 250 g/ha): 0%
herbicidal action on Sesbania (Sesbania [4]; DAA 11, 500 g/ha): 0%
herbicidal action on Sesbania (Sesbania [4]; DAA 11, 1000 g/ha): 0%

CCc1cccc(C)c1N(C(=O)CCl)C(C)COC (centres unmarked) [metolachlor]
herbicidal action on Sorghum hal. (Sorghum hal.; DAA 22, 375 g/ha): 0%
herbicidal action on Sorghum hal. (Sorghum hal.; DAA 22, 750 g/ha): 0%
herbicidal action on Sorghum hal. (Sorghum hal.; DAA 22, 1500 g/ha): 0%

CCC(CC)Nc1c([N+](=O)[O-])cc(C)c(C)c1[N+](=O)[O-] [pendimethalin]
herbicidal action on Xanthium (Xanthium; DAA 15, 250 g/ha): 0%
herbicidal action on Xanthium (Xanthium; DAA 15, 500 g/ha): 0%
herbicidal action on Xanthium (Xanthium; DAA 15, 1000 g/ha): 0%

CNc1cnn(-c2cccc(C(F)(F)F)c2)c(=O)c1Cl [norflurazon]
herbicidal action on Xanthium (Xanthium; DAA 27, 250 g/ha): 10%
herbicidal action on Xanthium (Xanthium; DAA 27, 500 g/ha): 35%
herbicidal action on Abutilon (Abutilon [1]; DAA 27, 250 g/ha): 60%
herbicidal action on Abutilon (Abutilon [1]; DAA 27, 500 g/ha): 60%
herbicidal action on Sesbania (Sesbania [2]; DAA 27, 250 g/ha): 10%
herbicidal action on Sesbania (Sesbania [2]; DAA 27, 500 g/ha): 30%
herbicidal action on cotton (damage) (cotton; DAA 27, 250 g/ha): 0%
herbicidal action on cotton (damage) (cotton; DAA 27, 500 g/ha): 0%

CN(C)C(=O)Nc1cccc(C(F)(F)F)c1 [fluometuron]
herbicidal action on Cyperus (Cyperus; titled pre-emergence (under Example B2), DAA 11, 250 g/ha): 0%
herbicidal action on Cyperus (Cyperus; titled pre-emergence (under Example B2), DAA 11, 500 g/ha): 25%
herbicidal action on Cyperus (Cyperus; titled pre-emergence (under Example B2), DAA 11, 1000 g/ha): 20%
